According to ChEMBL document CHEMBL5344420, “Flexibility in the bridge of chalcone derivatives is important for the inhibition of cellular growth” (Bioorg Med Chem Lett, 2023):

What follows are molecules tested on A549 (assay: Antiproliferative activity against human A549 cells assessed as cell growth inhibition measured after 48 hrs by CellTiter Aqueous One Solution MTS assay). Settings: A549, 48 h.
Assay type: functional, cell-based

Row | IC50 | Structure (SMILES)
1 | > 30 µM | O=C1/C(=C/c2ccccc2)CCc2ccccc21
2 | 16.8 µM | Cc1ccc(/C=C/C(=O)c2ccccc2)cc1
3 | > 30 µM | O=C1/C(=C/c2ccc(F)cc2)CCc2ccccc21
4 | 12.2 µM | O=C(/C=C/c1ccccc1)c1ccccc1 [CHALCONE]
5 | > 30 µM | Cc1ccc(/C=C2\CCc3ccccc3C2=O)cc1
6 | > 30 µM | O=C1/C(=C/c2ccc(OC(F)(F)F)cc2)Cc2ccccc21
7 | 26.6 µM | O=C(/C=C/c1ccc(O)cc1)c1ccccc1 [4-HYDROXYCHALCONE]
8 | > 30 µM | O=C1/C(=C/c2ccc(O)cc2)CCc2ccccc21
9 | > 30 µM | COc1ccc(/C=C2\CCc3ccccc3C2=O)cc1
10 | > 30 µM | O=C1/C(=C/c2ccccc2)Cc2ccccc21
11 | > 30 µM | O=C1/C(=C/c2ccc(O)cc2)Cc2ccccc21
12 | > 30 µM | Cc1ccc(/C=C2\Cc3ccccc3C2=O)cc1
13 | > 30 µM | O=C1/C(=C/c2ccc(OC(F)(F)F)cc2)CCc2ccccc21
14 | 5.35 µM | O=C(/C=C/c1ccc(OC(F)(F)F)cc1)c1ccccc1
15 | > 30 µM | O=C1/C(=C/c2ccc(F)cc2)Cc2ccccc21
16 | 5.2 µM | COc1ccc(/C=C/C(=O)c2ccccc2)cc1 [4-METHOXY CHALCONE]
17 | > 30 µM | COc1ccc(/C=C2\Cc3ccccc3C2=O)cc1
